Square brackets hold non-standard residues; d marks the D form. Ends that are not written are not given here.
Tests used:
mice [1] = test: Conditional position preference test (CPP); type: in vivo, mouse; settings: subcutaneous 10 mg/kg
Procedure: The conditional position preference experimental device is a closed device (45×20×20 cm) assembled from transparent plexiglass plates. Two 20×20×20 cm conditional preference boxes are located at both ends of the device, with a small compartment 5×20×20 cm having a passage (5×5×5 cm) connected in the middle. On the first day of the experiment, the passage was kept open, the mice was placed into the device for 15 min, and the mice that had been explored for more than 9 min in any of the preference boxes were excluded. […] On day 5, the passage was kept opened again to ensure that the mice were free to enter into the two preference boxes, and the time that the mice stayed in the drug matching preference box within 15 minutes of the total time was recorded.
The experimental relevant data were expressed as mean±standard error (Means±S.E.M.), and the conditional position preference score represents the time spent on the drug matching preference box on day 5 of each mouse minus the time on the first day in this preference box. Differences between groups treated with different drugs in CPP trials were analyzed by one-way ANOVA (Tukey HSD test in one-way ANOVA) for data statistics and analysis.

mice [2] = test: Naloxone withdrawal test; type: in vivo, mouse; settings: s.c. at 8 hours intervals 20, 40, 60, 80, 100, 100, 100 mg/kg; naloxone 1 mg/kg; 30 minutes
[3] = system: gastrointestinal movement of male mice of Kunming strain; test: Gastrointestinal movement in vivo (activated carbon suspension); parameters: species or system mouse; settings: 10 mg/kg (compound 9 subcutaneous; morphine positive control)
Procedure: Male mice of Kunming strain, weighing 26±2 g. The commonly used toner detection method was used in the detection of astrointestinal movement in vivo. The specific experimental procedure was: before the gastrointestinal movement experiment, the mice were fasted for 16 hours (free drinking during fasting), then the drug was injected through spinal cord or subcutaneously, and after 15 minutes, the activated carbon suspension prepared in advance (a physiological saline suspension containing 5% of activated carbon and 10% gum arabic) was orally perfused into the stomach in a volume of 0.1 ml per 10 g of body weight. After 30 minutes from the perfusion of activated carbon suspension, the animals were sacrificed by cervical dislocation, and then the small intestine of the animal from the pylorus to the cecum was carefully taken out. The total lengths of the small intestine from the pylorus to the cecum and the furthest distance from which the activated carbon suspension moves were measured.
Gastrointestinal movement test results were evaluated by a percentage of gastrointestinal movement, and the percentage of gastrointestinal movement per mouse was calculated by dividing the moving distance of the activated carbon suspension by the total length of the small intestine. The relevant data were expressed as mean of the percentage of gastrointestinal movement±standard error (Means±S.E.M.), the data for differences between groups treated with different drug concentrations were analyzed by one-way ANOVA (Dunnett test in one-way ANOVA) for statistics and analysis, ***P<0.001 represented that there was a significant difference between the percentage of gastrointestinal movement of the drug-treated group and that of the saline group.

[4] = system: male mice of Kunming strain; test: Analgesic tolerance test (photothermal tail flick); type: in vivo, mouse
Procedure: The mice were injected with the drug in the lateral ventricle of the mice for six consecutive days or in the subcutaneous of the mice for eight consecutive days, and their analgesic tolerance were detected by photothermal tail flick method, and the pharmacological activity of the compounds of the present invention in analgesic tolerance was further explored.
In male mice of Kunming strain, the drug was injected continuously in the lateral ventricle for six days, once a day, and the effect of continuous injection of drugs on the pain sensation was detected by a photothermal tail flick instrument. The ambient temperature is controlled at 22±1° C., and the experimental animals are free to eat and drink. The test drug was injected into the lateral ventricle of the mouse for 6 consecutive days, 4 μl per injection. The basic tail flick incubation period (3-5 seconds) was measured before the first day of drug injection, and those mice that were too sensitive or dull were discarded. The tail flick incubation period of 5, 10, 15, 20, 30 min after administration on the first and sixth days was recorded in the experiment. To prevent scald on the tail of the mouse, the maximum tail flick incubation period was set as 10 seconds,
In addition, we further studied the tolerance of subcutaneous administration of compound 9 and morphine in the photothermal tail flick test. The ambient temperature is controlled at 22±1° C., and the experimental animals are free to eat and drink. First, the basic tail flick incubation period (3-5 seconds) of the mice was measured before administration, and then compound 9 or morphine was administered subcutaneously for eight consecutive days. The tail flick incubation period of 10, 15 and 20 minutes after daily administration were recorded. To prevent scald on the tail of the mouse, the maximum tail flick incubation period was set as 10 seconds.
The experimental data is expressed by MPE (maximum possible effect), MPE (%)=100×[(pain threshold after administration−basal pain threshold)/(10 seconds−basal pain threshold)]. The analgesic tolerance of the drug was compared using the MPE value at the time of maximum analgesic effect of the drug. MPE data was expressed as mean±standard error (Means±S.E.M.). The difference in the analgesic effect of continuous administration in the lateral ventricle of the mice for six days was statistically analyzed by the paired T test, and the difference in the analgesic effect of subcutaneous continuous administration for eight days was analyzed by One-way analysis of variance (one-way ANOVA's Tukey HSD test) for statistics, and ***P<0.001 indicates a significant difference from the analgesic effect of the drug injected on the first day.

[5] = system: movement activity of mice; test: Movement activity, open field experiment; type: in vivo, mouse; settings: subcutaneous 10 mg/kg
Procedure: The movement activity of the mice was tested by open field experiments. The experimental device is consisted of a 50×50×50 cm topless black plexiglass box and a movement monitoring system. The experiment was carried out in a soundproof environment with an indoor temperature being controlled at 22±1° C. After the experiment was started, the mice were first recorded for free movement within 30 minutes, and then compound 9 or morphine was administered subcutaneously, the movement of the mice was detected for another 150 minutes. Before the experiment for each mouse was started, the whole box was wiped with alcohol as a whole to exclude the residual odor of the previous mouse from affecting the accuracy of the data.
The experimental data were expressed as mean±standard error (Means±S.E.M.), and the data for differences between groups treated with different drugs were analyzed by one-way ANOVA (Bonferroni test in one-way ANOVA) for statistics and analysis, ***P<0.001 represents that there was a significant difference between the movement activity of the drug-treated group and that of the saline group.

[6] = system: CCI-induced neuralgia in mouse; test: Analgesic tolerance and cross-tolerance in CCI-induced neuralgia; type: in vivo; settings: subcutaneous, seven consecutive days
Procedure: CCI-induced neuralgia in mouse was detected using a PL-200 thermal tingling instrument and an electronic Von Frey tenderness instrument. The thermal pain threshold of one group of normal mice and the mechanical pain threshold of another group of normal mice were first determined. The mice were then anesthetized with sodium pentobarbital 80 mg/kg mouse body weight) and the mice were fixed in the prone position. The right sciatic nerve was exposed and 3 mild ligation rings were made around the sciatic nerve using a 4-0 chromic catgut, 1 mm intervals. The ligation intensity is preferably a slight tremor in the right hind leg. On the 10th day after surgery, the thermal pain sensitivity value and mechanical pain sensitivity value of the right hind paw of the two groups of mice were determined. Compound 9 or morphine was then administered subcutaneously for seven consecutive days, and compound 9 was given to mice in the morphine group on day 8. The thermal tingling and mechanical pain thresholds at different time points after administration were recorded.
The experimental data were expressed as mean±standard error (Means±S.E.M.). Data for differences between groups treated with the same drug were analyzed by one-way ANOVA (Tukey HSD test of one-way ANOVA) for statistics and analysis, *P<0.05. **P<0.01, ***P<0.001 indicates a significant difference between the pain threshold of the drug-treated group and the pain threshold after the First day of administration.

[7] = system: CFA-induced inflammatory pain in mouse; test: Analgesic tolerance and cross-tolerance in CFA-induced inflammatory pain; type: in vivo; settings: mechanical pain, lateral ventricle 6 days or subcutaneous 7 days
Procedure: CFA-induced inflammatory pain in mouse was detected by an electronic Von Frey tenderness instrument, and the basal pain threshold of normal mice was Firstly determined. Then […] of CFA solution was injected subcutaneously into the mouse paw. After 4 days, the mechanical pain sensitivity value of the injected paw of the mouse was measured. And then compound 9 or morphine was injected for 6 consecutive days (lateral ventricle) or 7 consecutive days (subcutaneously), and the mice in morphine group were given compound 9 on day 7 (lateral ventricle) or day 8 (subcutaneous). The mechanical pain thresholds at different time points after administration were recorded.
The experimental data were expressed as mean± standard error (Means±S.E.M.). Data for differences between groups treated with the same drug were analyzed by one-way ANOVA (Tukey HSD test of one-way ANOVA) for statistics and analysis, *P<0.05. **P<0.005, ***P<0.001 indicates a significant difference between the mechanical pain threshold of the drug-treated group and the pain threshold after the first day of administration.

[8] = system: formalin-induced pain mice; settings: lateral ventricle; Br J Pharmacol 2016; cited from earlier work
[9] = system: acute pain caused by photothermal therapy in male mice of Kunming strain; settings: mouse tail flick, lateral ventricle; from ZL201210098832.2; cited from earlier work
[10] = lateral ventricle injection, once a day, morphine 4 nmol

| Compound | conditional positional preference (mice [1]) | average number of jumps after naloxone withdrawal (mice [2]) | percentage of gastrointestinal movement [3] | analgesic tolerance ([4]; eight consecutive days subcutaneous, 10 mg/kg) | analgesic effect (MPE) after six days of continuous injection [4, 10] | analgesic effect (MPE) on the first day [4, 10] | analgesic tolerance ([4]; six consecutive days lateral ventricle injection, compounds at 3 times ED50, morphine 4 nmol) | total distance of movement [5] | analgesic tolerance on continuous injection, mechanical pain sensitivity [6] | analgesic tolerance on continuous injection, thermal sensitivity pain [6] | analgesic tolerance on continuous injection [7] | analgesic ED50 value of BN-9, formalin first phase pain [8] | analgesic ED50 value of BN-9, formalin second phase pain [8] | analgesic ED50 value of BN-9 [9] |
| --- | --- | --- | --- | --- | --- | --- | --- | --- | --- | --- | --- | --- | --- | --- |
| CN1CC[C@]23c4c5ccc(O)c4O[C@H]2[C@@H](O)C=C[C@H]3[C@H]1C5 [morphine, reference compound] | produced significant conditional positional preference | 47 | 16.92% | significantly reduced from day 4 | 36.15% | 86.97% | can significantly cause analgesia tolerance | 439.73 m | from the fourth day | from the third day | significantly reduced from the fourth day |  |  |  |
| Tyr-D-Ala-Gly-Phe-Gln-Pro-Gln-Arg-Phe-NH2 (Y[dA]GFQPQRF-NH2) [BN-9] |  |  |  |  |  |  |  |  |  |  |  | 0.12 nmol | 1.14 nmol | 0.39 nmol |
